Reference: patent US6858591B2, “Antibiotic AA 896 analogs” (Wyeth Holdings Corporation, priority 2001, dated 2005)
≈ marks a conversion by molar mass, not a printed value. Where two headings read alike, the source gives them in different places.

Assays:
Assay in all cases: In vitro MIC, broth dilution
Assay type in all cases: cell-based
P. aeruginosa GC 4532 = details: P. aeruginosa GC 4532
K. pneumoniae GC 4534 = details: K. pneumoniae GC 4534
E. cloacae GC 3783 = details: E. cloacae GC 3783
P. aeruginosa GC 2214 = details: P. aeruginosa GC 2214
C. albicans GC 3066 = details: C. albicans GC 3066
E. coli GC 2203 = details: E. coli GC 2203
M. morganii GC 4531 = details: M. morganii GC 4531
S. marcescens GC 4077 = details: S. marcescens GC 4077
E. coli GC 4559 = details: E. coli GC 4559
CNS GC 4538 = tested on: CNS GC 4538
Experimental: (§1) The minimum inhibitory concentration (MIC), the lowest concentration of the antibiotic which inhibits growth of the test organism, is determined by the broth dilution method using Muller-Hinton II […] (Baltimore Biological Laboratories) following the recommendations of National Committee for Clinical Laboratory Standards. [Reference for the Methods for dilution antimicrobial susceptibility tests for bacteria that grow aerobically: National Committee for Clinical Laboratory Standards, 1997. Approved standard M7-A National Committee for Clinical Laboratory Standards, Wayne, Pa.] An inoculum level of 5×10^5 CFU/ml, and a range of antibiotic concentrations (64-0.06 μg/ml) is used. The MIC is determined after the microtiter plates are incubated for 18 hours at 35° C. in an ambient air incubator. The test organisms comprise a spectrum of gram-positive bacteria including Staphylococcus sp., Streptococcus sp. and Enterococcus sp. These organisms include recent clinical isolates that are resistant to methicillin, penicillin and vancomycin.

E. faecalis GC 842 = details: E. faecalis GC 842
Experimental: as §1

E. faecalis GC 4555 = details: E. faecalis GC 4555
Experimental: as §1

CNS GC 4547 = tested on: CNS GC 4547
Experimental: as §1

CNS GC 4537 = tested on: CNS GC 4537
Experimental: as §1

E. faecalis GC 2242 = details: E. faecalis GC 2242
Experimental: as §1

S. aureus GC 2216 = details: S. aureus GC 2216
Experimental: as §1

S. aureus GC 1131 = details: S. aureus GC 1131
Experimental: as §1

S. aureus GC 4536 = details: S. aureus GC 4536
Experimental: as §1

E. coli GC 3226 = details: E. coli GC 3226
E. coli GC 4560 = details: E. coli GC 4560
[1] = Pseudomonas aeruginosa, GC4532, read-out: MIC
[2] = Klebsiella pneumoniae, GC4534, read-out: MIC
[3] = Enterobacter cloacae, GC3783, read-out: MIC
[4] = Pseudomonas aeruginosa, GC2214, read-out: MIC
[5] = Candida albicans, GC3066, read-out: MIC
[6] = Escherichia coli, GC2203, read-out: MIC
[7] = Morganella morganii, GC4531, read-out: MIC
[8] = Serratia marcescens, GC4077, read-out: MIC
[9] = Escherichia coli, GC4559, read-out: MIC
[10] = Enterococcus faecalis, GC842, read-out: MIC
[11] = Enterococcus faecalis, GC4555, read-out: MIC
[12] = Enterococcus faecalis, GC2242, read-out: MIC
[13] = Staphylococcus aureus, GC2216, read-out: MIC
[14] = Staphylococcus aureus, GC1131, read-out: MIC
[15] = Staphylococcus aureus, GC4536, read-out: MIC
[16] = Escherichia coli, GC3226, read-out: MIC
[17] = Escherichia coli, GC4560, read-out: MIC

Structure (SMILES)	MIC (P. aeruginosa GC 4532; [1])	MIC (K. pneumoniae GC 4534; [2])	MIC (E. cloacae GC 3783; [3])	MIC (P. aeruginosa GC 2214; [4])	MIC (C. albicans GC 3066; [5])	MIC (E. coli GC 2203; [6])	MIC (M. morganii GC 4531; [7])	MIC (S. marcescens GC 4077; [8])	MIC (E. coli GC 4559; [9])	MIC (CNS GC 4538; CNS GC 4538, read-out: MIC)	MIC (E. faecalis GC 842; [10])	MIC (E. faecalis GC 4555; [11])	MIC (CNS GC 4547; CNS GC 4547, read-out: MIC)	MIC (CNS GC 4537; CNS GC 4537, read-out: MIC)	MIC (E. faecalis GC 2242; [12])	MIC (S. aureus GC 2216; [13])	MIC (S. aureus GC 1131; [14])	MIC (S. aureus GC 4536; [15])	MIC (E. coli GC 3226; [16])	MIC (E. coli GC 4560; [17])	also measured
COc1ccc(Cn2c(=O)ccn([C@@H]3OC([C@H](O)[C@H](NCCCNC(=O)[C@H](CC(C)C)NC(=O)OCc4ccccc4)C(=O)OC(C)(C)C)[C@@H](O[Si](C)(C)C(C)(C)C)[C@H]3O[Si](C)(C)C(C)(C)C)c2=O)cc1 (stereo partly drawn) [Example 4, tert-Butyl (5S,12S)-12-[(R)-[(3R,4R,5R)-3,4-bis{[tert-butyl(dimethyl)silyl]oxy}-5-(3-(4-methoxybenzyl)-2,4-dioxo-3,4-dihydro-1(2H)-pyrimidinyl)tetrahydro-2-furanyl](hydroxy)methyl]-5-isobutyl-3,6-dioxo-1-phenyl-2-oxa-4,7,11-triazatridecan-13-oate]	> 128 µg/mL	> 128 µg/mL	> 128 µg/mL	128 µg/mL (≈ 125 µM)	> 128 µg/mL	> 128 µg/mL	> 128 µg/mL	> 128 µg/mL	> 128 µg/mL	> 128 µg/mL	> 128 µg/mL	> 128 µg/mL	> 128 µg/mL	> 128 µg/mL	128 µg/mL (≈ 125 µM)	> 128 µg/mL	> 128 µg/mL	> 128 µg/mL	> 128 µg/mL	> 128 µg/mL	–
COc1ccc(Cn2c(=O)ccn([C@@H]3OC(C(O)[C@H](NCCCNC(=O)[C@@H](N)CC(=O)O)C(=O)OC(C)(C)C)[C@@H](O[Si](C)(C)C(C)(C)C)[C@H]3O[Si](C)(C)C(C)(C)C)c2=O)cc1 (stereo in doubt) [Example 17, (3S)-3-Amino-4-[(3-{[(1S,2S)-2-[(3R,4R,5R)-3,4-bis{[tert-butyl(dimethyl)silyl]oxy}-5-(3-(4-methoxybenzyl)-2,4-dioxo-3,4-dihydro-1(2H)-pyrimidinyl)tetrahydro-2-furanyl]-1-(tert-butoxycarbonyl)-2-hydroxyethyl]amino}propyl)amino]-4-oxobutanoic acid]	> 128 µg/mL	> 128 µg/mL	> 128 µg/mL	> 128 µg/mL	> 128 µg/mL	> 128 µg/mL	> 128 µg/mL	> 128 µg/mL	> 128 µg/mL	64 µg/mL (≈ 71.6 µM)	32 µg/mL (≈ 35.8 µM)	16 µg/mL (≈ 17.9 µM)	> 128 µg/mL	> 128 µg/mL	4 µg/mL (≈ 4.47 µM)	32 µg/mL (≈ 35.8 µM)	128 µg/mL (≈ 143 µM)	128 µg/mL (≈ 143 µM)	> 128 µg/mL	> 128 µg/mL	–
CCOC(=O)C(NCCCNC(=O)[C@@H](NC(=O)OCc1ccccc1)C(C)O)C(O)[C@H]1O[C@H](n2ccc(=O)[nH]c2=O)[C@H](OC(C)=O)[C@@H]1OC(C)=O (stereo partly drawn) [Example 31a, Ethyl (5S)-12-[(R)-[(2R,3R,4R,5S)-3,4-bis(acetyloxy)-5-(2,4-dioxo-3,4-dihydro-1(2H)-pyrimidinyl)tetrahydro-2-furanyl](hydroxy)methyl]-5-[(1S)-1-hydroxyethyl]-3,6-dioxo-1-phenyl-2-oxa-4,7,11-triazatridecan-13-oate]	128 µg/mL (≈ 177 µM)	128 µg/mL (≈ 177 µM)	128 µg/mL (≈ 177 µM)	128 µg/mL (≈ 177 µM)	128 µg/mL (≈ 177 µM)	128 µg/mL (≈ 177 µM)	128 µg/mL (≈ 177 µM)	128 µg/mL (≈ 177 µM)	> 128 µg/mL	> 128 µg/mL	128 µg/mL (≈ 177 µM)	128 µg/mL (≈ 177 µM)	> 128 µg/mL	> 128 µg/mL	128 µg/mL (≈ 177 µM)	> 128 µg/mL	> 128 µg/mL	> 128 µg/mL	128 µg/mL (≈ 177 µM)	128 µg/mL (≈ 177 µM)	–
CCOC(=O)C(NCCCNC(=O)[C@H](CC(C)C)NC(=O)OCc1ccccc1)C(OC(C)=O)[C@H]1O[C@H](n2ccc(=O)[nH]c2=O)[C@H](OC(C)=O)[C@@H]1OC(C)=O (stereo partly drawn) [Example 38a, Ethyl (5S)-12-{(R)-(acetyloxy)[(2R,3R,4R,5S)-3,4-bis(acetyloxy)-5-(2,4-dioxo-3,4-dihydro-1(2H)-pyrimidinyl)tetrahydro-2-furanyl]methyl}-5-isobutyl-3,6-dioxo-1-phenyl-2-oxa-4,7,11-triazatridecan-13-oate]	> 128 µg/mL	> 128 µg/mL	> 128 µg/mL	> 128 µg/mL	> 128 µg/mL	> 128 µg/mL	> 128 µg/mL	> 128 µg/mL	> 128 µg/mL	> 128 µg/mL	> 128 µg/mL	> 128 µg/mL	> 128 µg/mL	> 128 µg/mL	> 128 µg/mL	> 128 µg/mL	> 128 µg/mL	> 128 µg/mL	> 128 µg/mL	> 128 µg/mL	–
CCOC(=O)C(NCCCNC(=O)[C@H](CC(C)C)NC(=O)[C@H](CCCNC(=N)N[N+](=O)[O-])NC(=O)N[C@H](C(=O)OCc1ccccc1)C(C)C)[C@@H](OC(C)=O)[C@H]1O[C@@H](n2ccc(=O)[nH]c2=O)[C@H](OC(C)=O)[C@@H]1OC(C)=O (stereo partly drawn) [Example 42, 1-Benzyl 17-ethyl (2S,6S,9S)-16-{(R)-(acetyloxy)[(2R,3R,4R,5R)-3,4-bis(acetyloxy)-5-(2,4-dioxo-3,4-dihydro-1(2H)-pyrimidinyl)tetrahydro-2-furanyl]methyl}-6-(3-{[(2,2-dioxido-2lambda˜1˜-diazanyl)(imino)methyl]amino}propyl)-9-isobutyl-2-isopropyl-4,7,10-trioxo-3,5,8,11,15-pentaazaheptadecane-1,17-dioate]	–	–	–	–	–	–	–	–	–	–	–	–	–	–	–	–	–	–	–	–	MIC (P. aeruginosa GC 4532): 128 µg/mL (≈ 119 µM); MIC (K. pneumoniae GC 4534): 128 µg/mL (≈ 119 µM); MIC (E. cloacae GC 3783): 128 µg/mL (≈ 119 µM); MIC (P. aeruginosa GC 2214): 128 µg/mL (≈ 119 µM); MIC (C. albicans GC 3066): 128 µg/mL (≈ 119 µM); MIC (E. coli GC 2203): >128 µg/mL; MIC (M. morganii GC 4531): 128 µg/mL (≈ 119 µM); MIC (S. marcescens GC 4077): 128 µg/mL (≈ 119 µM); MIC (E. coli GC 4559): >128 µg/mL; MIC (CNS GC 4538; CNS GC 4538): >128 µg/mL; MIC (E. faecalis GC 842): 128 µg/mL (≈ 119 µM); MIC (E. faecalis GC 4555): 128 µg/mL (≈ 119 µM); MIC (CNS GC 4547; CNS GC 4547): 128 µg/mL (≈ 119 µM); MIC (CNS GC 4537; CNS GC 4537): >128 µg/mL; MIC (E. faecalis GC 2242): 64 µg/mL (≈ 59.5 µM); MIC (S. aureus GC 2216): >128 µg/mL; MIC (S. aureus GC 1131): >128 µg/mL; MIC (S. aureus GC 4536): >128 µg/mL; MIC (E. coli GC 3226): 128 µg/mL (≈ 119 µM); MIC (E. coli GC 4560): 128 µg/mL (≈ 119 µM)
CCOC(=O)C(NCCCNC(=O)[C@@H](NC(=O)[C@H](CCCNC(=N)N[N+](=O)[O-])NC(=O)N[C@H](C(=O)OCc1ccccc1)C(C)C)C(C)O)C(O)[C@H]1O[C@@H](n2ccc(=O)[nH]c2=O)[C@H](OC(C)=O)[C@@H]1OC(C)=O (stereo partly drawn) [Example 35]	128 µg/mL (≈ 125 µM)	> 128 µg/mL	> 128 µg/mL	128 µg/mL (≈ 125 µM)	128 µg/mL (≈ 125 µM)	> 128 µg/mL	128 µg/mL (≈ 125 µM)	> 128 µg/mL	> 128 µg/mL	–	> 128 µg/mL	> 128 µg/mL	–	–	128 µg/mL (≈ 125 µM)	> 128 µg/mL	> 128 µg/mL	> 128 µg/mL	> 128 µg/mL	> 128 µg/mL	MIC (CNS GC 4538): > 128 µg/mL; MIC (CNS GC 4547): > 128 µg/mL; MIC (CNS GC 4537): > 128 µg/mL
